Columns and labels:
human CB1 receptor [1] = target: T1, human CB1 receptor (Homo sapiens, UniProt P21554); experiment: GTPγS binding on membranes of CHO cells expressing the human CB1 receptor; type: biochemical; parameters: expressed in transfected cells; host or cells: CHO cells (G418 selection); membranes; settings: CHO cell membranes, [35S] GTPγS
Procedure: Membrane preparation: CHO cells expressing the human CB1 receptor were grown to 80% confluence in Ham's F-12 Nutrient Medium (Invitrogen) containing 10% fetal bovine serum (Invitrogen), 1% pen/strep (Invitrogen), 1% Nonessential amino acids (Invitrogen) and 500 μg/ml G418 (Invitrogen). Cells were released from flasks using Cell Dissociation Buffer (Invitrogen). Cells were pelleted by centrifugation at 500×G for 5 minutes. Membranes were prepared by resuspending cells in ice cold Assay Buffer (25 mM Tris pH 7.4, 5 mM EDTA, 5 mM EGTA, Complete Protease Inhibitor (Roche)). Cells were lysed with 12 strokes of a dounce homogenizer. Unlysed cells were pelleted by centrifugation at 500×G for 5 minutes. Membranes were pelleted by centrifugation at 25,000×G for 30 minutes. Membranes were resuspended in TEE, dounced 12 strokes, and pelleted a second time at 25,000×G for 30 minutes. Membrane pellet was resuspended in 50 mM Tris pH 7.4, 100 mM NaCl, 3 mM MgCl2, 0.2 mM EGTA, Complete Protease Inhibitor (Roche). Protein concentration was determined using the Micro-BCA Protein Assay Kit (Pierce) using BSA as a standard. Membranes were frozen and stored at −80 degrees Celsius until use. GTPγS Binding: 40 μl of test compound was incubated with 20 μl of [^35S] GTPγS (Perkin Elmer) (1250 Ci/millimole) and 140 μl of membrane homogenate (5 ug/well) in polypropylene 96-well plates (Corning). Final reaction conditions were 50 mM Tris pH 7.4, 100 mM NaCl, 3 mM […], 0.2 mM EGTA, 0.04% BSA. After incubation at 37 degrees Celsius for 45 minutes reactions were harvested by vacuum filtration through Unifilter GF/B-96 filters (Perkin Elmer) using a FilterMate Plate Harvester (Perkin Elmer). Filters were rinsed 4 times with ice cold 50 mM Tris pH 7.4, 3 mM MgCl2, 0.2 mM EGTA and dried at 50 degrees Celsius for at least 30 minutes. 40 μl of Microscint-20 (Perkin Elmer) was added per well, and plates were counted using a Top-Count Microplate Scintillation Counter (Perkin Elmer). Binding data were analyzed and EC50 values were calculated using Graph Pad Prism 4.0 Software.

human CB1 receptor [2] = target: T1, human CB1 receptor; experiment: Human CB1 receptor binding, [3H] CP-55,940 displacement on HEK cell membranes; parameters: expressed in transfected cells; membranes; settings: [3H] CP-55,940 500 pM
Procedure: The Human CB1 receptor binding affinity and other biological activities of the compounds of this invention are determined by the following procedures.
Membrane preparation: Human Embryonic Kidney (HEK) Cells expressing the human CB1 receptor under transcriptional regulation of a tetracycline inducible promoter were grown in Dulbecco's Modified Essential Medium with sodium pyruvate (Invitrogen, Carlsbad, Calif.) containing 10% tetracycline free fetal bovine serum (Clonetech, Mountain View, Calif.) 100 μg/ml hygromycin (Calbiochem, San Diego, Calif.), 5 μg/ml blasticidin (Invitrogen). CB1 receptor expression was induced by addition of 1 μg/ml doxycycline (Calbiochem) and incubation for an additional 24 hours. Cells were released from flasks using Cell Dissociation Buffer (Invitrogen). Cells were pelleted by centrifugation at 500×G for 5 minutes. Membranes were prepared by resuspending cells in ice cold TEE Buffer (25 mM Tris pH 7.4, 5 mM EDTA, 5 mM EGTA, Complete Protease Inhibitor (Roche, Basel, Switzerland)). Cells were lysed with 12 strokes of a dounce homogenizer. Unlysed cells were pelleted by centrifugation at 500×G for 5 minutes. Membranes were pelleted by centrifugation at 25,000×G for 30 minutes. Membranes were resuspended in TEE, dounced 12 strokes, and pelleted a second time at 25,000×G for 30 minutes. Membrane pellet was resuspended in 50 mM Tris pH 7.4, 100 mM NaCl, 3 mM MgCl2, 0.2 mM EGTA, Complete Protease Inhibitor (Roche). Protein concentration was determined using the Micro-BCA Protein Assay Kit (Pierce, Rockford, Ill.) using BSA as a standard. Membranes were quick frozen and stored at −80 degrees Celsius until use. Binding experiments: 50 μl of test compound was incubated with 50 μl, of [^3H] CP-55,940 (Perkin Elmer, Boston, Mass.) (final concentration 500 pM) and 150 μl of membrane homogenate (1 μg/well) in polypropylene 96-well plates (Corning, Acton, Mass.). Final reaction conditions were 50 mM Tris pH 7.4, 100 mM NaCl, 3 mM MgCl2, 0.2 mM EGTA, 0.04% BSA. Nonspecific binding was determined by incubation with 50 μM WIN-55,212-2 (Tocris, Ellisville, Mo.). After incubation at room temperature for 60 minutes reactions were harvested by vacuum filtration through Unifilter GF/B-96 filters (Perkin Elmer) that had been presoaked in assay buffer containing 0.5% BSA (Sigma, St. Louis, Mo.) using a FilterMate Plate Harvester (Perkin Elmer). Filters were rinsed 4 times with 50 mM Tris pH 7.4, 0.025% Tween20 and dried at 50 degrees Celsius for at least 30 minutes. 40 μl of Microscint-20 (Perkin Elmer) was added per well, and plates were counted using a Top-Count Microplate Scintillation Counter (Perkin Elmer). Binding data were analyzed and EC50 and Ki values calculated using Graph Pad Prism 4.0 Software.

T1 sequence (P21554 whole entry): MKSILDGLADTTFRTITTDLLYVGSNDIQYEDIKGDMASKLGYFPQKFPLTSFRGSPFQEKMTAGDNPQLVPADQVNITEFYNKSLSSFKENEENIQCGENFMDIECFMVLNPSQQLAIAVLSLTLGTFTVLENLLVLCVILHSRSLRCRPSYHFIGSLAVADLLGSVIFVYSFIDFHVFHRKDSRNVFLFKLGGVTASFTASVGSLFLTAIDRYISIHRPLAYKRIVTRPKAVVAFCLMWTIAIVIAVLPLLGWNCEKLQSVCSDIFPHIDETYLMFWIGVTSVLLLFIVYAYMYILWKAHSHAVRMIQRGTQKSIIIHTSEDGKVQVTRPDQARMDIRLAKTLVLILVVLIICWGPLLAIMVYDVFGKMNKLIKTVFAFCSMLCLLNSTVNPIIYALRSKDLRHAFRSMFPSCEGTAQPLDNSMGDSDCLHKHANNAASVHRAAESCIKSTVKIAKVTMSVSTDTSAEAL

| SMILES | EC50 (human CB1 receptor [1]) [nM] | Ki (human CB1 receptor [2]) [nM] |
| --- | --- | --- |
| CC(C)(C)[C@H](NC(=O)n1c(=O)n(Cc2ccccc2)c2ccccc21)C(=O)NCCCO [Example 361] | 249 | 24.7 |
| O=C(N[C@H]1CCCC[C@@H]1O)n1c(=O)n(CC2CCCCC2)c2ccccc21 [Example 191] | 394 | 10.5 |
| Cc1nc(C(C)NC(=O)n2c(=O)n(CC3CCOCC3)c3ccccc32)cs1 (stereo not drawn) [Example 350] | 131 | 13.4 |
| O=C(N[C@H]1c2ccccc2C[C@H]1O)n1c(=O)n(CC2CCC2)c2ccccc21 [Example 189] | 1020 | 88.4 |
| CC(C)(C)[C@H](NC(=O)n1c(=O)n(CC2CC=C(F)CC2)c2ccccc21)C(N)=O (single isomer, unassigned) [Example 305] | 1.74 | 0.18 |
| Cc1cc(CNC(=O)n2c(=O)n(CC3CCOCC3)c3ccccc32)no1 [Example 312] | 380 | 69.5 |
| CC(C)(C)[C@H](NC(=O)n1c(=O)n(CC2CCOCC2)c2cc(F)ccc21)C(=O)NCCCO [Example 355] | 361 | 6.72 |
| Cc1cc(CNC(=O)n2c(=O)n(CC3CCOCC3)c3ccccc32)c(C)o1 [Example 311] | 57 | 2.03 |
| Cc1nc(C)c(CNC(=O)n2c(=O)n(CC3CCOCC3)c3ccccc32)s1 [Example 337] | 6490 | 12.1 |
| CC(C)(C)[C@H](NC(=O)n1c(=O)n(CC2CCOCC2)c2ccccc21)C(=O)NC1CC1 [Example 298] | 88.6 | 5.27 |
| Cc1nc(C(F)(F)F)c(CNC(=O)n2c(=O)n(CC3CCOCC3)c3ccccc32)s1 [Example 349] | 157 | 19.1 |
| CC(C)(C)[C@H](NC(=O)n1c(=O)n(CCC2CCC2)c2ccccc21)C(N)=O [Example 217] | 3.2 | 1.28 |
| Cc1ccc2c(c1)n(CC1CCCCC1)c(=O)n2C(=O)N[C@@H](Cc1ccccc1)C(N)=O [Example 268] | 2580 | 130 |
| CCCCCn1c(=O)n(C(=O)N[C@H](C(N)=O)C(C)C)c2ccccc21 [Example 205] | 422 | 69 |
| CC(C)(C)[C@H](NC(=O)n1c(=O)n(CC2CCCCO2)c2ccccc21)C(N)=O (stereo partly drawn) [Example 224] | 176 | 29.9 |
| CC(C)(C)[C@H](NC(=O)n1c(=O)n(Cc2ccccc2)c2ccccc21)c1nnc(N)o1 [Example 359] | 79.2 | 3.06 |
| CCCCn1c(=O)n(C(=O)N[C@H](C(N)=O)C(C)(C)C)c2ccccc21 [Example 292] | 75.1 | 2.09 |
| CC(C)(C)[C@H](NC(=O)n1c(=O)n(CC2CCOCC2)c2ccccc21)C(=O)NCCCO [Example 318] | 230 | 23.9 |

| SMILES | EC50 (human CB1 receptor [1]) [nM] | Ki (human CB1 receptor [2]) [nM] |
| --- | --- | --- |
| Cc1cccc2c1n(CC1CCCCC1)c(=O)n2C(=O)N[C@H](C(N)=O)C(C)(C)C [Example 174] | 8.3 | 0.32 |
| CCCCCn1c(=O)n(C(=O)N[C@H]2CCCC[C@@H]2O)c2ccccc21 [Example 193] | 622 | 67.4 |
| CC(C)(C)[C@H](NC(=O)n1c(=O)n(CC2CCOCC2)c2ccccc21)C(=O)NCCO [Example 317] | 83.6 | 12 |
| CC(C)(C)[C@H](NC(=O)n1c(=O)n(CC2CCCCC2)c2cccc(F)c21)C(N)=O [Example 271] | 6.53 | 1.28 |
| CC(C)(C)[C@H](NC(=O)n1c(=O)n(CC2CCCCC2)c2ccc(Cl)cc21)C(N)=O [Example 166] | 31.5 | 2.52 |
| CC(C)(C)[C@@H](CO)NC(=O)n1c(=O)n(CC2CCOCC2)c2cc(F)ccc21 [Example 301] | 268 | 5.25 |
| CC(C)(C)[C@@H](CO)NC(=O)n1c(=O)n(CC2CCCCC2)c2cc(Br)ccc21 [Example 308] | 20.5 | 5.38 |
| CCCCCn1c(=O)n(C(=O)N[C@H](CO)C(C)(C)C)c2ccccc21 [Example 178] | 137 | 8.45 |
| CC(C)(C)[C@H](NC(=O)n1c(=O)n(CC2CCCCC2)c2cc(Cl)ccc21)C(N)=O [Example 170] | 1.86 | 0.28 |
| CC(C)(C)[C@H](NC(=O)n1c(=O)n(CC2CCCCC2)c2ccc(F)cc21)C(N)=O [Example 165] | 27.4 | 0.82 |
| CN(C)CC(C)(C)CNC(=O)n1c(=O)n(CC2CCCCC2)c2ccccc21 [Example 182] | 267 | 17 |
| Cc1ccc2c(c1)n(CC1CCCCC1)c(=O)n2C(=O)N[C@H](CC(C)C)C(N)=O [Example 267] | > 10000 | 18.4 |
| CC(C)(C)[C@H](NC(=O)n1c(=O)n(CC2CCOCC2)c2cc(C#N)ccc21)C(N)=O [Example 272] | 45.4 | 58 |
| CC(C)(C)[C@H](NC(=O)n1c(=O)n(CC2CCCCC2)c2ncccc21)C(N)=O [Example 226] | 62.1 | 5.34 |
| CC(C)(C)[C@@H](CO)NC(=O)n1c(=O)n(CC2CCCCC2)c2ccccc21 [Example 176] | 82.4 | 2.22 |
| CC(C)(C)[C@H](NC(=O)n1c(=O)n(CC2CCCCC2)c2c(F)cccc21)C(N)=O [Example 172] | 7.8 | 0.77 |
| Cc1ccc2c(c1)n(C(=O)N[C@H](C(N)=O)C(C)(C)C)c(=O)n2CC1CCCCC1 [Example 167] | 44.9 | 2.66 |
| CCCCCn1c(=O)n(C(=O)N[C@H]2c3ccccc3C[C@H]2O)c2ccccc21 [Example 190] | 406 | 8.09 |
